Measured values taken from patent publication US7781418B2, “Composition for treating bone disorders” (Isis Innovation Ltd., priority 2006, dated 2010).
Structures can show the parent of a compound that is named as a salt.

Experiments:
[1] = target: T1, farnesyl pyrophosphate synthase (FPPS) (Homo sapiens, UniProt P14324); test: farnesyl pyrophosphate synthase (FPPS) inhibition assay; assay type: biochemical
T1 sequence (P14324 1-419): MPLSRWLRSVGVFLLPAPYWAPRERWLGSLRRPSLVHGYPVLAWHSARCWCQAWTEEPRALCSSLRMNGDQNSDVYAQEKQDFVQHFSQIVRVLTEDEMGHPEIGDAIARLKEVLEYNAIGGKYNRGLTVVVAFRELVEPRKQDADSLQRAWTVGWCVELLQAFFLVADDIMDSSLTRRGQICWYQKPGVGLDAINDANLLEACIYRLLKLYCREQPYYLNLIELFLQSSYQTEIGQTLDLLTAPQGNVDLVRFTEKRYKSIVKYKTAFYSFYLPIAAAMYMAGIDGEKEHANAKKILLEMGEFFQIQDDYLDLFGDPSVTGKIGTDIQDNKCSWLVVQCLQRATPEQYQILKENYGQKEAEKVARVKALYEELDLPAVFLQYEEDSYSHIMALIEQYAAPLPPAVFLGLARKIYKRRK
Protocol: The activity of the racemic mixture, is approximately 42 nM.

[2] = system: bone resorption and mineralization; test: Schenk Model: in vivo bone resorption inhibition and mineralization inhibition, lowest effective dose; settings: for Lowest Effective Dose, Bone Mineral Density (BMD) / Lowest Effective Dose, Bone Mineral Content (BMC): head-to-head comparison of all three compounds; for Lowest Effective Dose, Bone Mineral Content (BMC): highest dose tested 0.1

Structure (SMILES)	IC50 [1] [nM]	Lowest Effective Dose, Bone Mineral Density (BMD) [2] [mg P/kg]	Lowest Effective Dose, Bone Mineral Content (BMC) [2]	activity in the Schenk assay relative to enantiomer (1S,6R) and racemic mixture ([2]; compared with (1S,6R) enantiomer and corresponding racemic mixture)
O=P(O)(O)C1(P(=O)(O)O)CC2CCCNC2C1 (racemic) [Racemic Mixture]	~42	0.03	0.03 mg P/kg	–
O=P(O)(O)C1(P(=O)(O)O)C[C@@H]2CCCN[C@@H]2C1 [1R,6S Isomer, (1R,6S)-2-Azabicyclo[4.3.0]nonane-8,8-diphosphonic acid hydrochloride salt]	15	0.01	0.01 mg P/kg	more active
O=P(O)(O)C1(P(=O)(O)O)C[C@H]2CCCN[C@H]2C1 [1S,6R Isomer]	359	0.1	>0.1^2^ mg P/kg	–
